Measured values taken from patent US11635434B2, “Betaretrovirus epitopes and related methods of use” (priority 2018, dated 2023).

System: intrahepatic lymphocytes (IHL)
Assay: IFN-γ ELISPOT of intrahepatic lymphocytes stimulated with individual HBRV peptides
Format: cell-based, human
From the text: We isolated intrahepatic lymphocytes (IHL) to increase the likelihood of finding HBRV reactive lymphocytes (FIG. 3). IHL were extracted from 5 PBC subjects and 4 LT controls, as described^58 (FIG. 4B). ELISPOT was employed to detect IFN-γ spot forming colonies (SFC) using 100,000 IHL per reaction. Individual peptides from HBRV GAG and Env (immunosuppressive domains (ISD) peptides removed) were used to perform 140 analyses per sample with […] as positive and no stimulus as negative control. We found 15 GAG and 21 Env peptides that produced SFC above background levels (FIG. 6A).
Cellular immune responses have been found using pooled peptides of the HBRV Gag (n=58) and Env (n=85) proteins. […] In order to characterize immunodominant HBRV epitopes, we screened intra-hepatic lymphocytes (IHL) from PBC subjects and control subjects for evidence of IFNg production. Methods: IHL were isolated from liver transplant recipients with PBC (n=5) and other hepatic disorders (n=4). IHL were individually stimulated with 15-mer peptides from HBRV Gag or Env proteins (n=144) or the characterized CD8+ reactive epitope to pyruvate dehydrogenase-E2 (PDH-E2). ELISpot was used to measure spot forming colonies (SFC) producing IFN-g.

TIYLGGSPDFHGFRNMSG [Env 17]
number of PBC subjects whose IHL were reactive (IFN-γ producing) (5 PBC subjects): 1
SFC level in the reactive PBC subject's IHL (FIG. 6A): < 50 SFC
